Assay results reported in publication PMC2714806 (2009).
Values joined by “and” are separate entries in the source; they are usually repeats but may differ in a detail not shown here. Equal values may be shown once. “Also recorded” adds a separate entry of the source. Ends that are not written are not given here.

Legend:
NMDA receptor = conditions: cited from earlier work
[1] = system: NR1a/NR2A-, NR1a/NR2B-, NR1b/NR2A-, and NR1b/NR2B-containing receptors; conditions: cited from earlier work
NR1b/2A NMDA receptor = assay type: cell-based; conditions: pH 7.35
[2] = system: NR1b/2A and NR1b/2B NMDA receptors; assay type: cell-based; conditions: 40 µM
[3] = assay type: physicochemical; conditions: pH 6.5
NR1b/2B NMDA receptor = assay type: cell-based; conditions: pH 7.35
[4] = assay type: binding; conditions: pH 6.5
[5] = assay type: physicochemical; conditions: pH 6.5; remark: listed apart in the source
[6] = assay type: binding; conditions: pH 6.5; remark: listed apart in the source

Substance: GEγγYQγMLγNLRγAEVKKNA-NH2 [con-T[K7γ]]
- inhibition of ion flow through NMDA receptor complexes (NMDA receptor): potent and specific inhibitors

Substance: con-T: naturally-occurring conantokin derived from Conus tulipa (GEEEYQKMLENLREAEVKKNA; ends and bridges not checked; UniProt P17684 1-21, looked up)
- antagonism of NMDA receptor activity ([1]; 40 µM): completely antagonizes NMDA receptor activity at all subunit combinations
- inhibition of current flow through the NMDA receptor (NMDA receptor): potent and selective inhibitor of current flow through the NMDA receptor

Substance: con-T[M8N]: Met8-substituted con-T peptide (GEEEYQKNLENLREAEVKKNA; ends and bridges not checked; UniProt P17684 1-21, looked up, variant M8N)
- NR2A-/NR2B-selectivity [1]: non-selective

Substance: con-T[γ4E,K7γ,V17γ] [con-T-tri]
- effect on NMDA-evoked current (NR1b/2A NMDA receptor): current potentiation; also recorded: Potentiation of currents
- NR2A-/NR2B-selectivity [2]: NR2B selective
- helicity (in words) [3]: marginal helicity; also recorded: high percentage of helix content; also recorded: negligible helicity; also recorded: highly helical character
- effect on NMDA-evoked current (NR1b/2B NMDA receptor): modest inhibitory activity
- n (stoichiometry of metal ion binding) [4]: 1.0
- MWapp (apparent molecular weight) [5]: 3320 ± 300 and 6490 ± 450 and 3460 ± 190
- self-association [5]: did not result in marked self-association
- Kd [6]: 26 µM
